What was measured:
[1] = in vivo; cited from earlier work
[2] = tested on: symptoms of drug-induced peripheral neuropathy in multiple myeloma patients on chemotherapy; assay: Open labelled study of vitamin K2-7 on drug-induced peripheral neuropathy, symptoms scored by VAS; type: in vivo, human; details: for VAS Score: scale 0-10
Protocol: An open labelled study was conducted to evaluate the effect of vitamin K2-7 on drug-induced peripheral neuropathy. Patients who were diagnosed with multiple myeloma and are on chemotherapy treatment for the same, were assessed for the occurrence of symptoms of peripheral neuropathy and then selected. Patients were given 2 capsules of 100 mcg or 350 mcg of vitamin K2-7 along with the ongoing chemotherapy. The evaluation of symptoms of peripheral neuropathy (such as tingling, numbness, burning sensation, muscle cramps etc.) were assessed by VAS score (Schematic 1) from 0 to 10 (nil to unbearable). The scale has been used in various studies to measure the intensity and severity of various symptoms of neuropathy.
As the patients continued with the therapy, it was observed that the VAS score for all the symptoms decreased to between the range of “1” and “2”. This decrease has happened over a period of 2 to 5 months, depending upon the individual cases treated. […] The examples given in Table 1, summarises the data for 11 patients who were on vitamin K2-7 therapy for drug-induced peripheral neuropathy due to treatment for multiple myeloma. In Table 1, treatment administered refer to the cyclical chemotherapy provided to the patients of multiple myeloma (MM). These cycles are normally of 3 weeks or 21 days period, based on the attending physician's assessment of the patient's condition and tolerance.
However, vitamin K2-7 was administered daily as two […] capsules.
Treatment with vitamin K2-7 of subjects continued even after their having reached VAS score of “2”.
The gradation was judged by Physician based on following criteria. By using Visual Analog Scale, i.e. 0-10 point scale: 0=Absent; 1-3=Mild; 4-6=Moderate; 7-10=Severe.

[3] = natural forms, even at high doses; cited from earlier work

## CC1=C(C/C=C(\C)CCC[C@H](C)CCC[C@H](C)CCCC(C)C)C(=O)c2ccccc2C1=O [vitamin K1, phylloquinonc]
[1]
  half-life: 1.5 h

## CC(C)=CCC/C(C)=C/CC/C(C)=C/CC/C(C)=C/CC/C(C)=C/CC/C(C)=C/CC/C(C)=C/CC1=C(C)C(=O)c2ccccc2C1=O [Vitamin K2-7, vitamin K2-7]
[1]
  half-life: more than 72 hours
[2]; 1 of 11 patients who remained on 100 μg two times a day daily
  improvement in peripheral neuropathy: significant improvement
[2]; Patient 1, chemotherapy Bortezomib, Cyclophosphamide, Dexamethasone since June 2014, K2-7 from 16 Jun. 15 (350 μg), VAS before 8, scored 10 Dec. 15
  VAS Score: 2
[2]; Patient 2, chemotherapy Lenalidomide, Dexamethasone since 2014, K2-7 from 25 Jun. 15 (350 μg), VAS before 8, scored 05 Nov. 15
  VAS Score: 2
[2]; Patient 3, chemotherapy Lenalidomide, Dexamethasone, Zolendronic Acid since 2015, K2-7 from 19 Aug. 15 (100 μg), VAS before 8, scored 14 Mar. 16
  VAS Score: 2
[2]; Patient 4, chemotherapy Bortezomib, Cyclophosphamide, Dexamethasone since 2015, K2-7 from 09 Jun. 16 (350 μg), VAS before 8, scored 22 Dec. 16
  VAS Score: 1
[2]; Patient 5, chemotherapy Bortezomib, Cyclophosphamide, Dexamethasone since 2016, K2-7 from 23 Feb. 17 (350 μg), VAS before 9, scored 12 Aug. 17
  VAS Score: 2
[2]; Patient 6, chemotherapy Rituximab, Cyclophosphamide, Doxorubicin, Vincristine, Prednisolone since November 2014, K2-7 from 22 May 17 (350 μg), VAS before 9, scored 04 Oct. 17
  VAS Score: 2
[2]; Patient 7, chemotherapy Lenalidomide, Dexamethasone since 2010, K2-7 from 30 Jun. 17 (350 μg), VAS before 8, scored 27 Dec. 17
  VAS Score: 2
[2]; Patient 8, chemotherapy Bortezomib, Cyclophosphamide, Dexamethasone since March 2017, K2-7 from 03 Nov. 17 (350 μg), VAS before 7, scored 03 Apr. 18
  VAS Score: 2
[2]; Patient 9, chemotherapy Bortezomib, Cyclophosphamide, Dexamethasone since 2016, K2-7 from 20 Jul. 16 (350 μg), VAS before 9, scored 11 Jan. 17
  VAS Score: 2
[2]; Patient 10, chemotherapy Lenalidomide, Dexamethasone since 2016, K2-7 from 10 Jun. 17 (350 μg), VAS before 8, scored 10 Jan. 18
  VAS Score: 3
[2]; Patient 11, chemotherapy Dexamethasone since 2016, K2-7 from 25 Mar. 17 (350 μg), VAS before 9, scored 29 Sep. 17
  VAS Score: 2
[2]; continuation of vitamin K2-7 during subsequent chemotherapy cycles
  flare up of symptoms of drug-induced peripheral neuropathy: prevented the flair up
[2]; multiple myeloma patients on chemotherapy
  adverse events during the vitamin K2-7 therapy: no adverse events were noted
[2]; treatment continued after VAS score of 2
  effect of continued treatment after reaching VAS score of 2: stabilised the VAS Score
[3]
  symptoms of toxicity: have not produced symptoms of toxicity
